Two compounds from ChEMBL document CHEMBL5058643, “Data for DCP probe BI-2081” (2022) can be followed below.

In data set [1] the target is T1, Alpha-2A adrenergic receptor (Homo sapiens) (UniProt P08913).
T1 sequence (whole entry): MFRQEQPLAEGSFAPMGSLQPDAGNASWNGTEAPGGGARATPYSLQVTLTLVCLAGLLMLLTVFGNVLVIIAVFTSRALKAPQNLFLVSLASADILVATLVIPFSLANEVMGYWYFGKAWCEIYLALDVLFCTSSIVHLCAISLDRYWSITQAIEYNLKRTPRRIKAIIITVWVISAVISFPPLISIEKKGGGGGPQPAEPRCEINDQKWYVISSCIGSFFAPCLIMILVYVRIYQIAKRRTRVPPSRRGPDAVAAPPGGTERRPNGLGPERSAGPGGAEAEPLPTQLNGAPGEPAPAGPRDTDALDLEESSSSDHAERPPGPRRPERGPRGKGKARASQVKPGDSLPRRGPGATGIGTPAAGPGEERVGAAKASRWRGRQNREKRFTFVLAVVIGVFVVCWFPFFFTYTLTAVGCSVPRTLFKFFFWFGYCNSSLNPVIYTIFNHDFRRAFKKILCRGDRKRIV
The data set is described as follows: ALPHA2A/HU Eurofins SafetyScreen44 (BI). The conditions noted are these: Compound concentration 10.0 uM.

Data set [2] deals with cGMP-inhibited 3',5'-cyclic phosphodiesterase 3A (Homo sapiens) (UniProt Q14432). The data set is described as follows: PDE3A Eurofins SafetyScreen44 (BI). The conditions noted are these: Compound concentration 10.0 uM.
Chain of cGMP-inhibited 3',5'-cyclic phosphodiesterase 3A (Homo sapiens) (Q14432 whole entry): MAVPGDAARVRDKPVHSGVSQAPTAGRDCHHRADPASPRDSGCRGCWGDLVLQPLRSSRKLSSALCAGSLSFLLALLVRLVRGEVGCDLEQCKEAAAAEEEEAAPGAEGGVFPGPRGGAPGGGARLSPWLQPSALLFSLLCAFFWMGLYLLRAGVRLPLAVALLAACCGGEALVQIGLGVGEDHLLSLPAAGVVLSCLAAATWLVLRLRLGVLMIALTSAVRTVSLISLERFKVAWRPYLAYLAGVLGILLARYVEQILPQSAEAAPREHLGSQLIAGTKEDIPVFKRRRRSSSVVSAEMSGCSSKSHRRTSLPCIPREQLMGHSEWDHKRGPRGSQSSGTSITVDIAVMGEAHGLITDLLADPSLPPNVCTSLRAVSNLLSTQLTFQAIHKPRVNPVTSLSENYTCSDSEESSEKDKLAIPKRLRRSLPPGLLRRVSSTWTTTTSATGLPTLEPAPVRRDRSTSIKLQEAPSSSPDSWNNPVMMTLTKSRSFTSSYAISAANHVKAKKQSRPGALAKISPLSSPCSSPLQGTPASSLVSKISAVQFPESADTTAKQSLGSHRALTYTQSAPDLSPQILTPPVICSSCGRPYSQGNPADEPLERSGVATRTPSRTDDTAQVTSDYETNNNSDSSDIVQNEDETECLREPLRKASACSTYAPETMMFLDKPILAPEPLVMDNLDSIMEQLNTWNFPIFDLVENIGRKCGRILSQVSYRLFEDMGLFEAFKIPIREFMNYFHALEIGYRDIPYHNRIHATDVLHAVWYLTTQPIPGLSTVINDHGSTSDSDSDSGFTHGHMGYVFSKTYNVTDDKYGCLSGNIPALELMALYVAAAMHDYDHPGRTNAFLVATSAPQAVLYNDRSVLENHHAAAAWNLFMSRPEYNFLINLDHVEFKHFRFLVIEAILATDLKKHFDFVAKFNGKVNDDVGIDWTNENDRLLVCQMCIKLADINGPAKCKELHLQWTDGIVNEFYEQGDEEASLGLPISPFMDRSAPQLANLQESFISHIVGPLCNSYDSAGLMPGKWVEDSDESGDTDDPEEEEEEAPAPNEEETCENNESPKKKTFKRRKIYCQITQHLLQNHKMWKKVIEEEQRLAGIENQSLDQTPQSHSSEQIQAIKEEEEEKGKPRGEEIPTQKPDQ
The target in data set [3] is Prostaglandin G/H synthase 2 (Homo sapiens) (UniProt P35354). The data set is described as follows: COX-2 Eurofins SafetyScreen44 (BI). The conditions noted are these: Compound concentration 10.0 uM.
Data set [4] addresses D(4) dopamine receptor (Homo sapiens) (UniProt P21917). The settings on record: Compound concentration 10.0 uM.
The target in data set [5] is T2, Muscarinic acetylcholine receptor M1 (Homo sapiens) (UniProt P11229).
T2 sequence (whole entry): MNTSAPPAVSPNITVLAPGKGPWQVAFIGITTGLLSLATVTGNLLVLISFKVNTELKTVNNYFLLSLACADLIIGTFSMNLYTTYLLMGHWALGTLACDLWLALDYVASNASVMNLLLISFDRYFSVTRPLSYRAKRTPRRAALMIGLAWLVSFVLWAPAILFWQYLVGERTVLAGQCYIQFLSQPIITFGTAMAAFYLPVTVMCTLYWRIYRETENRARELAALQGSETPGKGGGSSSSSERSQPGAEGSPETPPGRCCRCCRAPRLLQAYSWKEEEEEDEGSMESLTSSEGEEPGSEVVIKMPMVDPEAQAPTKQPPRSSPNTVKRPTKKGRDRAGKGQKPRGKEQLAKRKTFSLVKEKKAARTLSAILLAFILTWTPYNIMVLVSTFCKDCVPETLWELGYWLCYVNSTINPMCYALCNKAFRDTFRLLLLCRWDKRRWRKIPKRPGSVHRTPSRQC
Kind of data set: M1/H Eurofins SafetyScreen44 (BI). The settings on record: Compound concentration 10.0 uM.

Data set [6] addresses 5-hydroxytryptamine receptor 1B (Homo sapiens) (UniProt P28222). Kind of data set: 5HT1B(H) Eurofins SafetyScreen44 (BI). The settings on record: filed as antagonist, Compound concentration 10.0 uM.
For data set [7], the target named is Adenosine receptor A2a (Homo sapiens) (UniProt P29274). The data set is described as follows: A2A/HU Eurofins SafetyScreen44 (BI). The settings on record: Compound concentration 10.0 uM.
Chain of Adenosine receptor A2a (Homo sapiens) (P29274 whole entry): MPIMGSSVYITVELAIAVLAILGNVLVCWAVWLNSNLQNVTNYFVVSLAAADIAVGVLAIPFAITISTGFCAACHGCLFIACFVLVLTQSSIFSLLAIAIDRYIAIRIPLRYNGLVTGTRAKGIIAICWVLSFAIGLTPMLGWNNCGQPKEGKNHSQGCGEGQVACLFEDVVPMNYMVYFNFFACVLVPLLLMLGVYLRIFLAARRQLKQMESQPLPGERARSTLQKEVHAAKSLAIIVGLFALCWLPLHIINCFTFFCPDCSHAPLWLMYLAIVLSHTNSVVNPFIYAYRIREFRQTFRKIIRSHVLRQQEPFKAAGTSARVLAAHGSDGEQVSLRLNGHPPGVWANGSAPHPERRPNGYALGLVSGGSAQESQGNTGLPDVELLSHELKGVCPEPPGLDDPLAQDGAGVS
The target of data set [8] is Beta-2 adrenergic receptor (Homo sapiens) (UniProt P07550). Kind of data set: BETA2/HU Eurofins SafetyScreen44 (BI). The settings on record: Compound concentration 10.0 uM.
Chain of Beta-2 adrenergic receptor (Homo sapiens) (P07550 whole entry, looked up): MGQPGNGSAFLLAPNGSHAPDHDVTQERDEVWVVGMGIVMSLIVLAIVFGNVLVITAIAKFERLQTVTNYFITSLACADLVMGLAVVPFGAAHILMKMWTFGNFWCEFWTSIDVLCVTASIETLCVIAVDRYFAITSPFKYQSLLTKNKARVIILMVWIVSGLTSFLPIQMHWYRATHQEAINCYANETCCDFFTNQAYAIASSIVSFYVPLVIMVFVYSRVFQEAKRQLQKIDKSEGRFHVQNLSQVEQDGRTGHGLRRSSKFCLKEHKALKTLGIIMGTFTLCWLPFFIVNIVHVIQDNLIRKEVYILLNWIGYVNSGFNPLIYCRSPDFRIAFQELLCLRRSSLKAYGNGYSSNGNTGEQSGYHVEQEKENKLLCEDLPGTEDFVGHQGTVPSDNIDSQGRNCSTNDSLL
For data set [9], the target named is T3, Alpha-1D adrenergic receptor (Homo sapiens) (UniProt P25100).
T3 sequence (whole entry): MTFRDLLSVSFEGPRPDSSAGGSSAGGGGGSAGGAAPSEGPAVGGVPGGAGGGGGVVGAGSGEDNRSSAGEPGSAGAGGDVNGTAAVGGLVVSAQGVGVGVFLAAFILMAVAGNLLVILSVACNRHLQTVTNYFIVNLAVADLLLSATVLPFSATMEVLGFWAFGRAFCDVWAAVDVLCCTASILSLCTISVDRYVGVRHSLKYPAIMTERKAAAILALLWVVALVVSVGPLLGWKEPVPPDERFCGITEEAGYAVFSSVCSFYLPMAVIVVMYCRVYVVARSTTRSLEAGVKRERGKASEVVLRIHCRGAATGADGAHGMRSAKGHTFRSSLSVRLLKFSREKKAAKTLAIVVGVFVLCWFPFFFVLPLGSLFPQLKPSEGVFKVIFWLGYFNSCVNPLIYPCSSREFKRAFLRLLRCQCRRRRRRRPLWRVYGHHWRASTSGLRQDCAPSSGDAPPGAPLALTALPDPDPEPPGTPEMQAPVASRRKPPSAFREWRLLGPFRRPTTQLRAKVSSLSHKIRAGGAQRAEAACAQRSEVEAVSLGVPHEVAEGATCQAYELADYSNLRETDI
Kind of data set: ALPHA1D/H Eurofins SafetyScreen44 (BI). The settings on record: Compound concentration 10.0 uM.

Data set [10] concerns the target Peroxisome proliferator-activated receptor alpha (Homo sapiens) (UniProt Q07869). The data set is described as follows: PPAR_ALPHA Eurofins SafetyScreen44 (BI). The settings on record: filed as agonist, Compound concentration 10.0 uM.
The target of data set [11] is Sodium- and chloride-dependent GABA transporter 1 (Rattus norvegicus) (UniProt P23978). The data set is described as follows: GABATRANS/RA Eurofins SafetyScreen44 (BI). The settings on record: Compound concentration 10.0 uM.
The target of data set [12] is T4, 5-hydroxytryptamine receptor 1A (Homo sapiens) (UniProt P08908).
T4 sequence (whole entry): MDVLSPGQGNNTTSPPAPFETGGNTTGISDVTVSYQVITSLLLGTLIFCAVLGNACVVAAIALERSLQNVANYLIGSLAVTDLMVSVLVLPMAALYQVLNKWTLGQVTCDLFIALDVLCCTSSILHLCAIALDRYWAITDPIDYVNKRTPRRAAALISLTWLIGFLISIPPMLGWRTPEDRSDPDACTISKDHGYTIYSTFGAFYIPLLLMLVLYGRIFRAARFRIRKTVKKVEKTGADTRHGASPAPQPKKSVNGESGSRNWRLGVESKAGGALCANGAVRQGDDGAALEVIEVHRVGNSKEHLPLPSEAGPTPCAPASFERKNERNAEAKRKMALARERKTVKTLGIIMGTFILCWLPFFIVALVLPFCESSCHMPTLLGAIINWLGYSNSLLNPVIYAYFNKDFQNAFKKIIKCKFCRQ
The data set is described as follows: 5HT1A/HU Eurofins SafetyScreen44 (BI). The settings on record: Compound concentration 10.0 uM.

Data set [13] addresses 3',5'-cyclic-AMP phosphodiesterase 4A (Rattus norvegicus) (UniProt P54748). The data set is described as follows: ROLIPRAM/R Eurofins SafetyScreen44 (BI). The conditions noted are these: Compound concentration 10.0 uM.
The target in data set [14] is D(3) dopamine receptor (Homo sapiens) (UniProt P35462). The data set is described as follows: D3/HU Eurofins SafetyScreen44 (BI). The settings on record: Compound concentration 10.0 uM.
The target of a further data set is hERG (KCNH2) (Homo sapiens, UniProt Q12809). The data set is described as follows: K+/HERG Eurofins SafetyScreen44 (BI). The conditions noted are these: compound concentration 10 uM, read-out: % Ctrl.
For data set [15], the target named is Neuropeptide Y receptor type 1 (Homo sapiens) (UniProt P25929). Kind of data set: Y1/HU Eurofins SafetyScreen44 (BI). The conditions noted are these: Compound concentration 10.0 uM.
Chain of Neuropeptide Y receptor type 1 (Homo sapiens) (P25929 whole entry): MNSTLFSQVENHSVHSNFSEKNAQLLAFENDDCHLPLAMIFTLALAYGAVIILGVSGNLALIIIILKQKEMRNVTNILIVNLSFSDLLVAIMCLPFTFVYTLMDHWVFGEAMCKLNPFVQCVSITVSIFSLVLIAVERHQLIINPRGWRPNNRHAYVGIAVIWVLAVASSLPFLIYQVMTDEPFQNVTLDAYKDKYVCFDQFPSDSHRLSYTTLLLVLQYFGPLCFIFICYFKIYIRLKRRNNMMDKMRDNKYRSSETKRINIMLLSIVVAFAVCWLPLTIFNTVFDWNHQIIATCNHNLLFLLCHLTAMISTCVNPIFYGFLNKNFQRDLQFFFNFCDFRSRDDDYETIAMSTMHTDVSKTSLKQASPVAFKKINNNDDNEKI
Data set [16] has as its target Adenosine receptor A1 (Homo sapiens) (UniProt P30542). The data set is described as follows: A1/HU Eurofins SafetyScreen44 (BI). The settings on record: Compound concentration 10.0 uM.
For data set [17], the target named is T2, Muscarinic acetylcholine receptor M1 (Homo sapiens). The data set is described as follows: M1/HU Eurofins SafetyScreen44 (BI). The conditions noted are these: Compound concentration 10.0 uM.
Data set [18] addresses Delta-type opioid receptor (Homo sapiens) (UniProt P41143). The data set is described as follows: DELTA/HU Eurofins SafetyScreen44 (BI). The settings on record: Compound concentration 10.0 uM.

Chain of D(4) dopamine receptor (Homo sapiens) (P21917 whole entry): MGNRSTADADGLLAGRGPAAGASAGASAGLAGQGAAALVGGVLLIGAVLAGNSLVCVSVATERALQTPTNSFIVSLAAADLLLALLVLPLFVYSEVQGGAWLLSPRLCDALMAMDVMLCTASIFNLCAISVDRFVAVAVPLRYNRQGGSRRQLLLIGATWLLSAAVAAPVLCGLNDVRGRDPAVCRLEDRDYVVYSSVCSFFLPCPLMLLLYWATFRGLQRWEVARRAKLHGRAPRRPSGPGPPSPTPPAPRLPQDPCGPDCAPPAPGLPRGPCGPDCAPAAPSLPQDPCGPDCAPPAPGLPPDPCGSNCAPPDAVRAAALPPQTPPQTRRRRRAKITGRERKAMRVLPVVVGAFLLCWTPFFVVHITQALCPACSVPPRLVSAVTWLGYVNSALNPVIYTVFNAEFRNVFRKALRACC
Chain of Peroxisome proliferator-activated receptor alpha (Homo sapiens) (Q07869 whole entry): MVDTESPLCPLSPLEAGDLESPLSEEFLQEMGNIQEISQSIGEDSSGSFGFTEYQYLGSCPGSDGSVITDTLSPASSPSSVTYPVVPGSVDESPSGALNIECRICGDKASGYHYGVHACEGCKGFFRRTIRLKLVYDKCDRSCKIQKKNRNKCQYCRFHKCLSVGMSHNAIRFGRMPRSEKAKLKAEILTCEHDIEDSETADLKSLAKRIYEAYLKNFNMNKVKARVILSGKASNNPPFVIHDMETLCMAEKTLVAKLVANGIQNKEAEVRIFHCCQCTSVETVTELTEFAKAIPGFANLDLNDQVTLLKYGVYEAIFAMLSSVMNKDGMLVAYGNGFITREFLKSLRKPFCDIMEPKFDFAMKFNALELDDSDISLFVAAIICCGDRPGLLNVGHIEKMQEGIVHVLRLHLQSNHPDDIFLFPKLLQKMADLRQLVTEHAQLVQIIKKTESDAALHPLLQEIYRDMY
Chain of 3',5'-cyclic-AMP phosphodiesterase 4A (Rattus norvegicus) (P54748 whole entry): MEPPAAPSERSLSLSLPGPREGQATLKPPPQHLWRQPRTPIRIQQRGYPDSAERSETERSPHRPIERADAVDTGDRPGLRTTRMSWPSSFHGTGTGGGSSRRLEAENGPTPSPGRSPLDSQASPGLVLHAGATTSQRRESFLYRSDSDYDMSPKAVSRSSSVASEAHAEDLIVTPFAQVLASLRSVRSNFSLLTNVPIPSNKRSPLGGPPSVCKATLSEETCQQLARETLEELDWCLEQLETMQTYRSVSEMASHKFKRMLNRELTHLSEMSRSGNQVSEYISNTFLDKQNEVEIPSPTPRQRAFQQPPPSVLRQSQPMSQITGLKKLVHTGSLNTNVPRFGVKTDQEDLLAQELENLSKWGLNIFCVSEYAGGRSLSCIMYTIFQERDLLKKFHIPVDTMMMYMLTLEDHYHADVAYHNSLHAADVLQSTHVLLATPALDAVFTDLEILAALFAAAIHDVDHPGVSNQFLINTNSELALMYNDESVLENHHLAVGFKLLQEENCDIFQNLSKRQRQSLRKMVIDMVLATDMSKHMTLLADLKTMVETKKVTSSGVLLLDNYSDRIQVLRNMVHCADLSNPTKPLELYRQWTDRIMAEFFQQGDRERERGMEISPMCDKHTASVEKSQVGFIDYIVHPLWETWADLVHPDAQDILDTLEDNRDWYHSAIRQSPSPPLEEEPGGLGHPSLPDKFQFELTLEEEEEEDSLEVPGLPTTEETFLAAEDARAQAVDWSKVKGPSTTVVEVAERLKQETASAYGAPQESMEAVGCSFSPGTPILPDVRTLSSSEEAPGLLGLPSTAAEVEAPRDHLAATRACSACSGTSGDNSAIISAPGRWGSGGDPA
Chain of Adenosine receptor A1 (Homo sapiens) (P30542 whole entry): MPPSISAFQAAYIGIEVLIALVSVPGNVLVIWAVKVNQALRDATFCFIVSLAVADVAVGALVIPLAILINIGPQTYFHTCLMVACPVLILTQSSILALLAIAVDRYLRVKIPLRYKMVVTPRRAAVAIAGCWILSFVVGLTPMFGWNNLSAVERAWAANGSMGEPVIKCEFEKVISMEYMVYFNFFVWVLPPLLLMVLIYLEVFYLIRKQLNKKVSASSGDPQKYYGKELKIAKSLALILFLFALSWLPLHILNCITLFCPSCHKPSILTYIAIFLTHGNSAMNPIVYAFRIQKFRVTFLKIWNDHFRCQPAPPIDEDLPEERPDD
Chain of Delta-type opioid receptor (Homo sapiens) (P41143 whole entry): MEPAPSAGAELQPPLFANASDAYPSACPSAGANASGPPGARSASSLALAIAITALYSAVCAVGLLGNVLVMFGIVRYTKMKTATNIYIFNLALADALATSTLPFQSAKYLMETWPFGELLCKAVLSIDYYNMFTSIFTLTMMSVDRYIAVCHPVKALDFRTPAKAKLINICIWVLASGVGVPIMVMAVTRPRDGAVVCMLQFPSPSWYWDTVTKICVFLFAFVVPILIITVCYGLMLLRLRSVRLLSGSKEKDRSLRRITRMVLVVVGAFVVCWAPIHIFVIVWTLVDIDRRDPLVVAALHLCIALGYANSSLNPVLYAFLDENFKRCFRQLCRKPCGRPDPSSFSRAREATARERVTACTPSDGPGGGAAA

By inhibition is commonly meant the percentage by which the read-out fell short of the control. Turning to `COCCCS(=O)(=O)c1cc(C)c(-c2ccc(F)c3c2CC[C@H]3Oc2ccc3c(c2)OC[C@H]3CC(=O)O)c(C)c1`, the residual activity was 94% in data set [1]; 100% in data set [2]; 81% in data set [3]; 112% in data set [5]; 97% in [6]. In data set [4], the inhibition is 12.9%.

With `Cc1cc(OCCC(C)(C)O)cc(C)c1-c1ccc(F)c2c1CC[C@H]2Oc1ccc2c(c1)OC[C@H]2CC(=O)O`, the residual activity in [7] was 125%; in data set [8], 109%; in data set [9], 85%; in data set [10], 119%; in data set [11] it was 88%; in [12] it was 118%. Also, the residual activity in data set [13] is 105%; in data set [14], 63%; in data set [15], 108%; in [16] it was 68%; in data set [17], 83%; in data set [18] it was 74%. Further, the activity at 10 µM at hERG (KCNH2) is on record as 80% (not active).
